IC50 data for 31 compounds are collected here from US20220388962A1 (Biohaven Therapeutics Ltd., priority 2019, published 2022).

A word on the IC50: it is the concentration needed to halve the response being measured.

Where a name gives a salt, the structure may show the parent alone.

Chain of TDP-43 (Q13148 whole entry): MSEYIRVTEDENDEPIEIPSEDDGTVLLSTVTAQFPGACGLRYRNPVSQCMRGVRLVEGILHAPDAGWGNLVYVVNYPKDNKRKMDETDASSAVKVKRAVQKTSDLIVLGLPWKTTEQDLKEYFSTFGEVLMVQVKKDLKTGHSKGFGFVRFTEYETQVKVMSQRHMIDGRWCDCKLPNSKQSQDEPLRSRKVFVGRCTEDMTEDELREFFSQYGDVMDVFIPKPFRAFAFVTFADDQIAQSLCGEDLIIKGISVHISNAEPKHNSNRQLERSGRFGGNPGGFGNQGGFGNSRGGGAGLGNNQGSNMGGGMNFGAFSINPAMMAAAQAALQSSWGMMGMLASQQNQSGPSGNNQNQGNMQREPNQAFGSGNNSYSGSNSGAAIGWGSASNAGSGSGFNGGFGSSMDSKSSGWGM

In the experiment the target is TDP-43 (Homo sapiens, UniProt Q13148). The experiment can be described thus: TDP-43-DNA alpha-screen assay (bt-TAR-32 displacement). Format: binding. The note with it: bt-TAR-32 0.125 nM, 15 ng/ml TDP-43. The protocol:
Alpha-screen assay: Displacement of bt-TG6 binding was measured using AlphaScreen technology as previously described (Cassel, J. A. et al., Journal of Biomolecular Screening, 2010, 15, 1099-1106; Cassel, J. A.; Reitz, A. B. et al. The effects of small molecule inhibitors of nucleic acid binding to TDP-43 on TDP-43 metabolism and function. Biochimie, 2012, 94, 1974-1981).
Test compounds were diluted in assay buffer (25 mM Tris [pH 7.4], 0.1% bovine serum albumin [BSA], 0.1% Triton X-100) at 4× the desired final concentration. Dilutions of test compound (50 to 0.02 μM in half-log dilutions with a no compound control well) were pre-incubated with TDP-43 (5 μl of 60 ng/mL) pre-bound to AlphaScreen® anti-GST acceptor beads (5 μl of 40 μg/mL) in 15 μl volume for 30 minutes at 23° C. with shaking. Assays were initiated by the addition of 5 μl bt-TAR-32 (5′-CTGCTTTTTGCCTGTACTGGGTCTCTGTGGTT-3′) 0.5 nM pre-bound to AlphaScreen® strepavidin donor beads (40 μg/mL). After incubation in the dark at 23° C. for 90 minutes with shaking, the AlphaScreen® signal was measured on a Synergy 2 plate reader (BioTek, Winooski, Vt.). IC50 values were determined from nonlinear regression fits of the data to a Sigmoidal dose response variable slope model in GraphPad Prism. Final assay conditions are 25 mM Tris [pH 7.4], 0.1% bovine serum albumin [BSA], 0.100 Triton X-100, 15 ng/ml TDP-43, 0.125 nM bTAR32, 10 ug/ml […].
In general terms: In Alpha technology, singlet oxygen from a donor bead excites a nearby acceptor bead.
Regarding `COc1ccc(-c2cc(NCCCN3CC4CCC(N)C4C3)c3ccccc3n2)cc1` (stereo not shown) [Example 34, N-(3-(4-Aminohexahydrocyclopenta[c]pyrrol-2(1H)-yl)propyl)-2-(4-methoxyphenyl)quinolin-4-amine trihydrochloride], the IC50 was determined as 210 nM.

`COc1ccc(-c2cc(NCCCN3CC4CCN(C(=O)OC(C)(C)C)CC4C3)c3ccccc3n2)cc1` (stereo not shown) [Example 35, tert-Butyl 2-(3-((2-(4-methoxyphenyl)quinolin-4-yl)amino)propyl) hexahydro-1H-pyrrolo[3,4-c]pyridine-5(6H)-carboxylate]: the IC50 came out at 2670 nM. As for `COc1ccc(-c2cc(NCCCN3CC4CCNCC4C3)c3ccccc3n2)cc1` (stereo not shown) [Example 36, N-(3-(Hexahydro-1H-pyrrolo[3,4-c]pyridin-2(3H)-yl)propyl)-2-(4-methoxyphenyl)quinolin-4-amine dihydrochloride], the IC50 came out at 150 nM. For `COc1ccc(-c2cc(NCCCN(C)CC3CCN(CC4CC4)CC3)c3ccccc3n2)cc1` [Example 38, N^1-((1-(Cyclopropylmethyl)piperidin-4-yl)methyl)-N^3-(2-(4-methoxyphenyl)quinolin-4-yl)-N^1-methylpropane-1,3-diamine] the value was 220 nM; for `COc1ccc(-c2cc(NCCC3CCCCN3CCCN)c3ccccc3n2)cc1` (stereo not shown) [Example 39, N-(2-(1-(3-Aminopropyl)piperidin-2-yl)ethyl)-2-(4-methoxyphenyl) quinolin-4-amine dihydrochloride], 130 nM; for `COc1ccc(-c2cc(NCCCNC3CCN(Cc4ccc(F)cc4)CC3)c3ccccc3n2)cc1` [Example 40, N^1-(1-(4-Fluorobenzyl)piperidin-4-yl)-N^3-(2-(4-methoxyphenyl)quinolin-4-yl)propane-1,3-diamine], 300 nM.

For `COc1ccc(-c2cc(NCCCN3CCC4(C3)CN(C(=O)OC(C)(C)C)C4)c3ccccc3n2)cc1` [Example 41, tert-Butyl 6-(3-((2-(4-methoxyphenyl)quinolin-4-yl)amino)propyl)-2,6-diaza spiro[3.4]octane-2-carboxylate], the IC50 came out at 1470 nM.

Regarding `COc1ccc(-c2cc(NCCCN3CCC4(CNC4)C3)c3ccccc3n2)cc1` [Example 42, N-(3-(2,6-Diazaspiro[3.4]octan-6-yl)propyl)-2-(4-methoxyphenyl)quinolin-4-amine], the IC50 came to 230 nM. As for `COc1ccc(-c2cc(NCCCN3CCCN(C)CC3)c3ccccc3n2)cc1` [Example 43, 2-(4-Methoxyphenyl)-N-(3-(4-methyl-1,4-diazepan-1-yl)propyl)quinolin-4-amine], the IC50 came to 1190 nM. Turning to `COc1ccc(-c2cc(NCCCNCCC3CCCCN3C(=O)OC(C)(C)C)c3ccccc3n2)cc1` (stereo not shown) [Example 44, tert-Butyl 2-(2-((3-((2-(4-methoxyphenyl)quinolin-4-yl)amino)propyl)amino)ethyl)piperidine-1-carboxylate], the IC50 stood at 2070 nM. The figure for `COc1ccc(-c2cc(NCCCNCCC3CCCCN3)c3ccccc3n2)cc1` (stereo not shown) [Example 45, N^1-(2-(4-methoxyphenyl)quinolin-4-yl)-N^3-(2-(piperidin-2-yl)ethyl)propane-1,3-diamine] is 710 nM; for `COc1ccc(-c2cc(NCCCN3CCN(CCCN)CC3)c3ccccc3n2)cc1` [Example 46, N-(3-(4-(3-Aminopropyl)piperazin-1-yl)propyl)-2-(4-methoxyphenyl)quinolin-4-amine hydrochloride] it is 360 nM; for `COc1ccc(-c2cc(NCCCN(C)CC3CCN(C(=O)OC(C)(C)C)CC3)c3ccccc3n2)cc1` [Example 47, tert-Butyl 4-{[(3-{[2-(4-methoxyphenyl)quinolin-4-yl]amino}propyl)(methyl)amino]methyl}piperidine-1-carboxylate] it is 4050 nM.

With `COc1ccc(-c2cc(NCCCN(C)CC3CCNCC3)c3ccccc3n2)cc1` [Example 48, N-(3-(N-Methyl-N-((piperidin-4-yl)methyl)amino)propyl)-2-(4-methoxyphenyl)quinolin-4-amine], the IC50 stood at 100 nM. `COc1ccc(-c2cc(NCCCNS(=O)(=O)c3ccc(-c4nn[nH]n4)cc3)c3ccccc3n2)cc1` [Example 49, N-(3-((2-(4-Methoxyphenyl)quinolin-4-yl)amino)propyl)-4-(2H-tetrazol-5-yl)benzene sulfonamide]: the IC50 was 7200 nM. For `COc1ccc(-c2cc(NCCCNc3ccc(-c4nn[nH]n4)cc3)c3ccccc3n2)cc1` [Example 50, N^1-(4-(2H-Tetrazol-5-yl)phenyl)-N^3-(2-(4-methoxyphenyl)quinolin-4-yl) propane-1,3-diamine] the value was 15300 nM; for `COc1ccc(-c2cc(NCCCN3CCC(CO)CC3)c3ccccc3n2)cc1` [Example 51, (1-(3-((2-(4-Methoxyphenyl)quinolin-4-yl)amino)propyl)piperidin-4-yl) methanol], 1490 nM; for `CCN(CC)CC(O)CNCCCNc1cc(-c2ccc(OC)cc2)nc2ccccc12` (stereo not shown) [Example 52, 1-(Diethylamino)-3-((3-((2-(4-methoxyphenyl)quinolin-4-yl)amino)propyl)amino)propan-2-ol dihydrochloride], 170 nM. For `COc1ccc(-c2cc(NCCCNCc3ccnn3C)c3ccccc3n2)cc1` [Example 53, N^1-(2-(4-Methoxyphenyl)quinolin-4-yl)-N^3-((1-methyl-1H-pyrazol-5-yl)methyl) propane-1,3-diamine dihydrochloride] the value was 3270 nM; for `COc1ccc(-c2cc(NCCCNCCc3ccccn3)c3ccccc3n2)cc1` [Example 54, N^1-(2-(4-methoxyphenyl)quinolin-4-yl)-N^3-(2-(pyridin-2-yl)ethyl)propane-1,3-diamine hydrochloride], 1920 nM. With `COc1ccc(-c2cc(NCCCNc3ccc(N4CCCCC4)cc3)c3ccccc3n2)cc1` [Example 55, N^1-(2-(4-Methoxyphenyl)quinolin-4-yl)-N^3-(4-(piperidin-1-yl)phenyl) propane-1,3-diamine dihydrochloride], the IC50 amounted to 970 nM. For `COc1ccc(-c2cc(NCC3CCCN(CCCN)C3)c3ccccc3n2)cc1` (stereo not shown) [Example 56, N-((1-(3-Aminopropyl)piperidin-3-yl)methyl)-2-(4-methoxyphenyl)quinolin-4-amine] the value was 300 nM; for `COc1ccc(-c2cc(NCCCNCCc3c[nH]c4cc(OC)ccc34)c3ccccc3n2)cc1` [Example 57, N-(3-(2-(6-Methoxy-1H-indol-3-yl)ethylamino)propyl)-2-(4-methoxyphenyl) quinolin-4-amine], 260 nM. The figure for `COc1ccc(-c2cc(NCCCN(CC3CCN(C(=O)OC(C)(C)C)CC3)CC3CCN(C(=O)OC(C)(C)C)CC3)c3ccccc3n2)cc1` [Example 58, tert-Butyl 4-{[({1-[(tert-butoxy)carbonyl]piperidin-4-yl}methyl)(3-{[2-(4-methoxyphenyl)-quinolin-4-yl]amino}propyl)amino]methyl}piperidine-1-carboxylate] is 26700 nM; for `COc1ccc(-c2cc(NCCCN(CC3CCNCC3)CC3CCNCC3)c3ccccc3n2)cc1` [Example 59, N-(3-(Bis((piperidin-4-yl)methyl)amino)propyl)-2-(4-methoxyphenyl) quinolin-4-amine] it is 100 nM; for `COc1ccc(CN(C)CCCNc2cc(-c3ccc(OC)cc3)nc3ccccc23)cc1` [Example 60, N^1-(4-Methoxybenzyl)-N^3-(2-(4-methoxyphenyl)quinolin-4-yl)-N^1-methyl propane-1,3-diamine] it is 1970 nM. The figure for `COc1ccc(-c2cc(NC3CCC(NCCCNC(=O)OC(C)(C)C)CC3)c3ccccc3n2)cc1` (stereo not shown) [Example 61, tert-Butyl(3-((4-((2-(4-methoxyphenyl)quinolin-4-yl)amino)cyclohexyl)amino)propyl)carbamate] is 1350 nM. Consider `COc1ccc(-c2cc(NCCCNCC3CCN(C(=O)OC(C)(C)C)CC3)c3ccccc3n2)cc1` [Example 62, tert-Butyl 4-{[(3-{[2-(4-methoxyphenyl)quinolin-4-yl]amino}propyl)amino]methyl}piperidine-1-carboxylate], for which the IC50 was 1160 nM. For `COc1ccc(-c2cc(NCCCNCCCNc3ccncc3)c3ccccc3n2)cc1` [Example 63, N^1-(2-(4-methoxyphenyl)quinolin-4-yl)-N^3-(3-(pyridin-4-ylamino)propyl)propane-1,3-diamine dihydrochloride] the value was 100 nM; for `COc1ccc(-c2cc(NC3CCN(CCCN4C(=O)c5ccccc5C4=O)CC3)c3ccccc3n2)cc1` [Example 64, 2-(3-(4-((2-(4-Methoxyphenyl)quinolin-4-yl)amino)piperidin-1-yl)propyl) isoindoline-1,3-dione dihydrochloride], 3600 nM. For the compound `COc1ccc(-c2cc(NCC3CCCN(CCCN4C(=O)c5ccccc5C4=O)C3)c3ccccc3n2)cc1` (stereo not shown) [Example 65, 2-(3-(3-(((2-(4-Methoxyphenyl)quinolin-4-yl)amino)methyl)piperidin-1-yl)propyl)isoindoline-1,3-dione], the IC50 is 730 nM.
